Data as given in patent US20230414759A1, “NOVEL CYCLIC PEPTIDES BASED ON NANOBIOSTRUCTURAL CONTROL, PEPTIDESOMES WITH CORE/SHELL STRUCTURE COMPRISING SAME, AND USES THEREOF” (UIF (University Industry Fpimdatopm), Yonsei University, priority 2022, published 2023).

Assays:
[1] = Average hydrodynamic diameter of peptidesomes by DLS at different temperatures; type: physicochemical; conditions: distilled water, 20-40° C.
Description: The size of self-assembled nanoparticles (SNPs) was analyzed by a dynamic light scattering size distributor (particle size & zeta potential analyzer, ELS-1000ZS, Otsuka Electronics, Japan) using a UV-transparent cuvette having a path length of 1 cm. The secondary structure of the cyclic peptides of SPNs was analyzed using a Chirascan circular dichroism spectrometer equipped with a Peltier temperature controller (Applied Photophysics, UK). The CD (circular dichroism) spectra of samples were analyzed in a range of 190-260 nm using a cuvette having a path length of 2 mm. The molar residue ellipticity of the samples was calculated per amino acid residue. All mouse experiments were conducted under an animal protocol approved by the Catholic University of Korea on Laboratory Animal Care (2020-0359-05).
It was confirmed from the foregoing experiment that the cyclic peptides prepared in Examples 2-1 to 2-3 form vesicular self-assembled structure when stored in distilled water (DW). The average hydrodynamic diameter (Dn) of the self-assembled structures was measured by dynamic light scattering (DLS) at different temperatures (20° C., 30° C., 40° C.).

SCC7 cells [2] = test: Photodynamic killing of cancer cells, MTT assay after laser irradiation; type: cell-based; conditions: 24 hours, IR laser 671 nm 1.59 J/cm^2, peptidesome in DW
Description: SSC7 (squamous cell carcinoma 7) cells were treated with free Pa or the coassembled peptidesome of Example 4-6d (R6:RGD2<-Pa) (1:9) at 30 μM for 24 hours, followed by infrared (IR) laser (671 nm) irradiation at 1.59 J/cm^2. Cytotoxicity as a measure of the photodynamic killing of the cancer cells was determined by MTT assay.
As the samples, 2 μg/mL of free Pa, 2 μg/mL of the coassembled peptidesome of Example 4-6d (R6:RGD2<-Pa) (1:9) (G&G) and 2 μg/mL of the coassembled peptidesome of Example 4-6d (R6:RGD2<-Pa) (1:9) (DW) were used. DW means that distilled water was used instead of the G&G solution.

[3] = cited from earlier work
SCC7 cell-derived cancer = test: In-vivo antitumor efficacy (PDT) in xenograft mouse model; conditions: after 14 days
Description: SCC7 tumor-bearing mouse models were prepared similarly to the biodistribution analysis. When the tumor volume reached approximately 50 mm^3, the sample was intravenously injected into the xenograft mice. 3 hours after the sample injection, NIR laser (671 nm) was irradiated to the tumor site with a power of 0.53 W/cm^2 for 15 minutes, and the same sample injection and NIR irradiation were repeated on the next day. The tumor volume and body weight were recorded every two days. At the end of the therapy, major organs and tumors were dissected for histological analysis. […]
Squamous cell carcinoma 7 (SSC7) cells were cultured in an RPMI 1640 medium containing 10% FBS, 1% L-glutamine, 1% penicillin, streptomycin, etc. in a 37° C. incubator maintained at 5% carbon dioxide. The cultured cells were detached from the bottom of the flask using trypsin/EDTA and cell viability was evaluated by trypan blue exclusion assay. […]
After the injection of the sample to each group, tumor volume and body weight were recorded 2 days, 4 days, 6 days, 8 days, 10 days, 12 days and 14 days later. […] The organs and cancer tissues were fixed, prepared into cryosections, stained with hematoxylin and eosin (H&E) and observed with a fluorescence microscope (Axiolmager A1, Zeiss, Germany).

SCC7 cells [4] = test: Cellular uptake by CLSM and flow cytometry (FACS); type: cell-based; conditions: 2 μg/mL, 4 hours
Description: Analysis of intracellular delivery efficiency and FACS in vitro Cellular uptake of materials in SCC7 cells was analyzed based on the intrinsic fluorescence of Pa via CLSM (LSM700, Carl Zeiss, Germany) and flow cytometry (FACS Canto II, BD Biosciences, Bedford, MA, USA). SCC7 cells were seeded onto a 24-well plate at a density of 5×10^4 and incubated overnight. Then, […] of a sample was added to […] of a culture medium for each well. The cells were treated with the sample for 4 hours. Then, the sample was removed and the cells were washed. For cell imaging, cell nuclei were stained with Hoechst 33342.
SCC7 cells were seeded in a 24-well plate at a density of 5×10^4 and incubated overnight. Then, […] of the sample was added to […] of a culture medium. The cells were treated with the sample for 4 hours, followed by removal of the sample and washing. For cell imaging, the cell nuclei were stained with Hoechst 33342. The uptake of materials by the SCC7 cells was analyzed based on the intrinsic fluorescence of Pa via CLSM (LSM700, Carl Zeiss, Germany) and flow cytometry (FACS Canto II, BD Biosciences, Bedford, MA, USA).
As the samples, 2 μg/mL of free Pa, 2 μg/mL of the coassembled peptidesome of Example 4-6d (R6:RGD2<-Pa) (1:9) (G&G) and 2 μg/mL of the coassembled peptidesome of Example 4-6d (R6:RGD2<-Pa) (1:9) (DW) were used. […]

For `CCCCCCCCCCCC(=O)N[C@H]1CCCCNC(=O)[C@H](Cc2c[nH]c3ccccc23)NC(=O)CCC(=O)NCCOCCOCCNC(=O)[C@H](CCCNC(=N)N)NC(=O)[C@H](CCCNC(=N)N)NC(=O)CCC(=O)NCCOCCOCCNC(=O)[C@H](Cc2c[nH]c3ccccc23)NC1=O` [Example 2-1], the “average diameter of peptidesome (DLS)” value [1] was 99-127 nm.

In the case of pheophorbide a [free Pa], the “PDT effect (cell viability after laser irradiation)” value (SCC7 cells [2]) is given as “dose-dependent PDT effect”, the water solubility [3] is given as 14 µg/mL and the “weight of the excised tumor” value (SCC7 cell-derived cancer; 2 mg/kg, tail vein, NIR laser) is given as 1,222 mg. For the same compound, the “excised tumor weight of free Pa group relative to peptidesome<-Pa(G&G) group” value (SCC7 cell-derived cancer) was “approximately 3 times” and the “cell internalization efficiency of free Pa relative to the coassembled peptidesome” value (SCC7 cells [4]) was 5 fold.
